“Also recorded” adds a separate entry of the source.
How the values were obtained:
BAX/Bcl-2 = BAX/Bcl-2 ratio of gene expression; type: in vivo, rat; conditions: AlCl3-induced AD rats
Method: (§1) The brain tissues of the rats were removed and rigorously washed in isotonic saline 24 h after they were euthanized following the last behavioral test. For histological investigation, four brains per group were preserved for the whole night in 10% neutral buffered formalin. The remaining six brains were split into two sections each. In order to create a 10% homogenate (w/v), the first component was instantaneously homogenized using an ice-cold solution that included 300 mM sucrose and 50 mM Tris-HCl (pH 7.4). The homogenate was centrifuged at 1800× g for 10 min at 4 °C for biochemical tests, and the supernatant was thereafter kept at −20 °C. The second portion was set aside for use in RT-PCR analysis at −80 °C [94].
(§2) See Supplementary Information.

[1] = test system: brain tissue (CC, ST, FD, SN neurons); test: Histopathological examination of brain tissue; type: in vivo, rat; conditions: brain sections, AlCl3-induced AD rats; for histopathological finding in CC, ST, FD and SN (NP = nuclear pyknosis): H&E
Method: as §1
Brain tissue samples were stationed in 10% formalin for 24 h, washed with water, and then serially diluted with alcohol to induce dehydration. After being submerged in paraffin, the specimens were cut into segments that were 4 µm thick using a microtome.

β-catenin = test: Brain β-catenin level; type: in vivo, rat; conditions: AlCl3-induced AD rats; for β-Catenin (ng/L): mean ± SE, n = 6
Method: as §1, §2

TNF-α = test: Brain TNF-α level (ELISA); type: in vivo, rat; conditions: AlCl3-induced AD rats; for TNF-α (pg/g Tissue): mean ± SE, n = 6
Method: as §1, with “[94]. […]” for “[94].”

BDNF = test: Brain BDNF level (ELISA); type: in vivo, rat; conditions: AlCl3-induced AD rats; for BDNF (ng/mL): brain tissue, mean ± SE, n = 6
Method: as §1, §2

GSK3β = GSK3β gene expression (RT-qPCR); type: in vivo, rat; conditions: AlCl3-induced AD rats; for GSK3β: gene expression, mean ± SE, n = 6
Method: as §1, §2

TAC = test: Brain TAC (colorimetric); type: in vivo, rat; conditions: AlCl3-induced AD rats; for TAC (µmol/g Tissue): brain tissue, mean ± SE, n = 6
Method: as §1
The SOD enzyme activity was estimated using the Marklund et al. method, which is founded on the enzyme’s capacity to decrease the nitro blue tetrazolium dye at a wavelength of 540 nm. To evaluate the TAC, a colorimetric approach was employed to estimate the amount of hydrogen peroxide that remains after 3,5-dichloro-2-hydroxybenzene sulphonate is converted to a colored product at 660 nm.

HO-1 = HO-1 mRNA expression (RT-qPCR); type: in vivo, rat; conditions: AlCl3-induced AD rats; for HO-1: mRNA expression in brain tissue, mean ± SE, n = 6
Method: as §1, §2

TLR4 = TLR4 mRNA expression (RT-qPCR); type: in vivo, rat; parameters: reduction of TLR4 mRNA expression: concentration or dose not given beside the values; conditions: AlCl3-induced AD rats; for TLR4: mRNA expression level, mean ± SE, n = 6
Method: as §1, §2

AChE = target: T1, AChE (Homo sapiens, UniProt P22303); test: biochemical; conditions: colorimetric kit, 412 nm
T1 construct: purchased BioVision K197-100
T1 sequence (P22303 32-614): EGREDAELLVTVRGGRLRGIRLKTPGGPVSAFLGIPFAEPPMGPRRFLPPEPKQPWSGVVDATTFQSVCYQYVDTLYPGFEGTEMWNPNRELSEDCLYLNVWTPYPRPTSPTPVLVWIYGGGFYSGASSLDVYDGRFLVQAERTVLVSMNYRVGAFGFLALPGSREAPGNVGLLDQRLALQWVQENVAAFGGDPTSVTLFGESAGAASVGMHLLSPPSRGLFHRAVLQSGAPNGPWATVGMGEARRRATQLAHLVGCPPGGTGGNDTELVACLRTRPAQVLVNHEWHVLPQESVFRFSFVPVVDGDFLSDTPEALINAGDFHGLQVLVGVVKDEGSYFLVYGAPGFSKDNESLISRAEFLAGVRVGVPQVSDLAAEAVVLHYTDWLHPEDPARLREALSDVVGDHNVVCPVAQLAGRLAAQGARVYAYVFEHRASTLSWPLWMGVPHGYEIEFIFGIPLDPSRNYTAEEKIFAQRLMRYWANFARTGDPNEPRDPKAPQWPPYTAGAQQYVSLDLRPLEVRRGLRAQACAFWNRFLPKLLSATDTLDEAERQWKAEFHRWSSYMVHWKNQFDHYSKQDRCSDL
Method: All newly created compounds were subjected to an AChE enzyme inhibitory screening. This was performed with the Colorimetric AChE Inhibitor Screening Kit (BioVision Catalog # K197-100). The 96-well assay kit provides a rapid, simple, and reliable way to screen for AChE inhibitors in large quantities. […] A completely transparent 96-well plate with a flat bottom was loaded with 10 µL of test inhibitors that were diluted (20×). […] A measure of 10 μL of diluted AChE was applied to each well that contained compounds, inhibitor control, and solvent control. […] Measures of 25 μL of AChE assay buffer, 5 μL of probe mix, and 10 μL of diluted AChE substrate were mixed to create the reaction mix. The reaction mix was mixed with the compound, enzyme control, and inhibitor control. […] The IC50 was calculated using nonlinear regression analysis using the response–concentration (log) curve.

Bcl-2 = Bcl-2 gene expression (RT-qPCR); type: in vivo, rat; conditions: AlCl3-induced AD rats; for Bcl-2: gene expression, mean ± SE, n = 6
Method: as §1, §2

[2] = test system: AlCl3-induced AD rat model; test: Morris water maze (MWM) test in AlCl3-induced AD rats; type: in vivo; conditions: for Learning (s): escape latency; for Learning (s) / Memory (s): mean ± SE, n = 6; for Memory (s): time spent in target quadrant
Method: All procedures were conducted conforming to the applicable National Institutes of Health standards and regulations for the Care and Use of Laboratory Animals. In this experiment, adult male Dawley rats in excellent condition weighing between 300 and 320 g were used. The animals were acquired from the Nile Company for Pharmaceuticals and Chemical Industries (Cairo, Egypt). They were placed in a controlled laboratory setting with unrestricted access to water, a temperature range of 24 to 26 °C, and 12 h a light–dark cycle. Three rats per cage were housed in polycarbonate cages that were individually packed with paper and encased with stainless steel wire.
Spatial learning and memory were inspected using the MWM test. Tap water was poured into a 150 cm diameter by 60 cm high circular water tank until it reached a depth of 30 cm (25 ± 2 °C). To make the water […], non-toxic white dye was applied. The east, west, north, and south quadrants of the pool were essentially separated into four equal sections. At a specific spot in the middle of one quadrant, an escape platform with a diameter of 10 cm was submerged 2 cm below the water’s surface. The platform stood in the exact same quadrant throughout the testing. The rats’ swimming route was recorded by a video camera situated above the pool. From a designated spot in each quadrant, each rat was submerged in the water with its back turned to the pool wall, and it was then left to swim to the platform. The rats received training sessions every day for three days in a row, with four trials conducted in each session. Before the next trial began, the animals were kept a maximum of 60 s to explore the hidden platform. After that, they were permitted to relax on it for 20 s. The rat was positioned gently on the platform and allowed 20 s to rest if it took longer than 60 s to locate it. The time taken to find the platform, or the escape latency, was documented. In order to do a probing test on the fourth day, the platform was detached away, and the rats were given 60 s to swim liberally. The time spent in the assigned quadrant was counted.

SMILES: CCOC(=O)c1c(O)sc2c1CCCCC2 [Compound 2, Ethyl 2-hydroxy-5,6,7,8-tetrahydro-4H-cyclohepta[b]thiophene-3-carboxylate]
- BAX/Bcl-2 Ratio (BAX/Bcl-2): 30.11
- histopathological finding in CC, ST, FD and SN (NP = nuclear pyknosis) [1]: moderate NP in CC, FD, and SN, in addition to normal histology in ST; also recorded: significant NP in the CC, FD, and SN, whereas the striatal neurons’ histological structures remained normal
- elevation of β-catenin levels (β-catenin): 2.7 fold
- β-Catenin (ng/L) (β-catenin): 4.262 ± 0.12 ^abc ng/L
- decline in TNF-α levels (TNF-α): 31%
- TNF-α (pg/g Tissue) (TNF-α): 121.4 ± 0.97 ^abc pg/g Tissue
- BDNF (ng/mL) (BDNF): 64.95 ± 0.01 ^abc ng/mL
- reduction of GSK3β gene expression (GSK3β): 13.7%
- GSK3β (GSK3β): 8.80 ± 0.12 ^abc
- improvement of TAC levels (TAC): 1.9 times
- TAC (µmol/g Tissue) (TAC): 18.26 ± 0.395 ^abc µmol/g Tissue
- HO-1 (HO-1): 0.34 ± 0.032 ^abc
- TLR4 (TLR4): 7.66 ± 0.12 ^abc
- IC50 (AChE): 1.1 ± 0.04 µM
- Bcl-2 (Bcl-2): 0.27 ± 0.007 ^abc
- reduction in escape latency [2]: 32.2%
- Learning (s) [2]: 33.33 ± 0.8 ^abc s
- Memory (s) [2]: 24.17 ± 1.22 ^abc s

SMILES: CCOC(=O)c1c(OC(=O)CCl)sc2c1CCCCC2 [Compound 4, Ethyl 2-(2-chloroacetoxy)-5,6,7,8-tetrahydro-4H-cyclohepta[b]thiophene-3-carboxylate]
- BAX/Bcl-2 Ratio (BAX/Bcl-2): 19.53
- histopathological finding in CC, ST, FD and SN (NP = nuclear pyknosis) [1]: moderate NP in CC and SN, a moderate number of necrotic neurons in FD, as well as normal histology of ST neurons; also recorded: significant NP in the CC, FD, and SN, whereas the striatal neurons’ histological structures remained normal
- elevation of β-catenin levels (β-catenin): 3.9 fold
- β-Catenin (ng/L) (β-catenin): 6.17 ± 0.07 ^abc ng/L
- decline in TNF-α levels (TNF-α): 35.4%
- TNF-α (pg/g Tissue) (TNF-α): 113.6 ± 0.83 ^abc pg/g Tissue
- BDNF (ng/mL) (BDNF): 75.75 ± 0.01 ^abc ng/mL
- reduction of GSK3β gene expression (GSK3β): 32.7%
- GSK3β (GSK3β): 6.86 ± 0.15 ^abc
- improvement of TAC levels (TAC): 2.7 times
- TAC (µmol/g Tissue) (TAC): 25.87 ± 0.965 ^abc µmol/g Tissue
- HO-1 (HO-1): 0.39 ± 0.007 ^abc
- TLR4 (TLR4): 6.39 ± 0.12 ^abc
- IC50 (AChE): 41.2 ± 1.42 µM
- Bcl-2 (Bcl-2): 0.38 ± 0.020 ^abc
- reduction in escape latency [2]: 35.9%
- Learning (s) [2]: 31.5 ± 1.48 ^abc s
- Memory (s) [2]: 26.67 ± 1.54 ^abc s

SMILES: O=C1CN(c2ccccc2)C(=O)c2c(sc3c2CCCCC3)O1 [Compound 11, 4-Phenyl-3,4,7,8,9,10-hexahydro-6H-cyclohepta[4,5]thieno[3,2-f][1,4]oxazepine-2,5-dione]
- BAX/Bcl-2 Ratio (BAX/Bcl-2): 13.15
- histopathological finding in CC, ST, FD and SN (NP = nuclear pyknosis) [1]: mild NP in neurons in CC and moderate NP in ST, FD, and SN; also recorded: minor NP in the CC and significant NP in FD, ST, and SN
- elevation of β-catenin levels (β-catenin): 4.8 fold
- β-Catenin (ng/L) (β-catenin): 7.25 ± 0.04 ^abc ng/L
- decline in TNF-α levels (TNF-α): 43.6%
- TNF-α (pg/g Tissue) (TNF-α): 99.23 ± 0.42 ^abc pg/g Tissue
- elevation of BDNF levels (BDNF): 3 fold
- BDNF (ng/mL) (BDNF): 127.3 ± 0.01 ^abc ng/mL
- GSK3β (GSK3β): 2.34 ± 0.06 ^abc
- improvement of TAC levels (TAC): 4 times
- TAC (µmol/g Tissue) (TAC): 38.23 ± 0.50 ^abc µmol/g Tissue
- elevation of HO-1 mRNA expression (HO-1): 4.4 fold
- HO-1 (HO-1): 0.53 ± 0.004 ^abc
- reduction of TLR4 mRNA expression (TLR4): 42.2%
- TLR4 (TLR4): 5.56 ± 0.1 ^abc
- IC50 (AChE): 2.67 ± 0.09 µM
- upregulation of Bcl-2 gene expression (Bcl-2): 4.3 fold
- Bcl-2 (Bcl-2): 0.52 ± 0.020 ^abc
- increase in quadrant residence time [2]: 3.5 times
- Learning (s) [2]: 25.17 ± 1.25 ^abc s
- Memory (s) [2]: 35.17 ± 0.95 ^abc s

SMILES: O=C1CN(c2ccc(Cl)cc2)C(=O)c2c(sc3c2CCCCC3)O1 [Compound 12, 4-(4-Chlorophenyl)-3,4,7,8,9,10-hexahydro-6H-cyclohepta[4,5]thieno[3,2-f][1,4]oxazepine-2,5-dione]
- BAX/Bcl-2 Ratio (BAX/Bcl-2): 5.91
- histopathological finding in CC, ST, FD and SN (NP = nuclear pyknosis) [1]: normal histology in CC and FD, as well as mild NP in ST and SN
- histology of CC neurons and FD [1]: normal histological structures
- pyknosis in ST and SN neurons [1]: minimal pyknosis
- elevation of β-catenin levels (β-catenin): 6.3 fold
- β-Catenin (ng/L) (β-catenin): 9.91 ± 0.15 ^abc ng/L
- decline in TNF-α levels (TNF-α): 62.5%
- TNF-α (pg/g Tissue) (TNF-α): 65.98 ± 0.91 ^abc pg/g Tissue
- elevation of BDNF levels (BDNF): 2 fold
- BDNF (ng/mL) (BDNF): 83.62 ± 0.06 ^abc ng/mL
- reduction of GSK3β gene expression (GSK3β): 47.4%
- GSK3β (GSK3β): 5.36 ± 0.07 ^abc
- improvement of TAC levels (TAC): approximately 3 times
- TAC (µmol/g Tissue) (TAC): 29.33 ± 0.57 ^abc µmol/g Tissue
- elevation of HO-1 mRNA expression (HO-1): 5.7 fold
- HO-1 (HO-1): 0.69 ± 0.020 ^abc
- reduction of TLR4 mRNA expression (TLR4): 71.4%
- TLR4 (TLR4): 2.75 ± 0.06 ^abc
- IC50 (AChE): 10.9 ± 0.38 µM
- upregulation of Bcl-2 gene expression (Bcl-2): 6.8 fold
- Bcl-2 (Bcl-2): 0.82 ± 0.020 ^abc
- increase in quadrant residence time [2]: 3.7 times
- Learning (s) [2]: 23.5 ± 1.23 ^abc s
- Memory (s) [2]: 37.17 ± 1.52 ^abc s

Source: PMC12389534, “Unlocking Therapeutic Potential of Novel Thieno-Oxazepine Hybrids as Multi-Target Inhibitors of AChE/BChE and Evaluation Against Alzheimer’s Disease: In Vivo, In Vitro, Histopathological, and Docking Studies” (Pharmaceuticals, 2025)
